Conditions in one data set: not given
`CCCCCCS`: the boiling point – broadly, the temperature at which the vapour pressure of the liquid equals the pressure above it – worked out at 151 °C; the log10 vapour pressure (mmHg) was determined as 0.624; the melting point (in general, the temperature, or range, at which the solid turns liquid) was -81 °C.
The molecule `NC(=O)Nc1cccc(F)c1` came in with a log10 Koc (L/kg) of 1.77.
For `BrC[C@@H]1CCCO1`, the boiling point was determined as 170 °C.
Same read-out and setting: with `O=C(CCl)C(Cl)Cl` the figure was 172 °C.
The molecule `O=C1CCCC1` gave a boiling point of 130 °C, a log10 Henry constant (atm·m³/mol) of -5, a log10 Koa of 3.67 and a log10 vapour pressure (mmHg) of 1.06. The melting point was -51.3 °C.
Molecule `CCCC(O)CCC` gave a boiling point of 156 °C, a log10 vapour pressure (mmHg) of -0.0048 and a melting point of -41.2 °C.
`CN(C)C(C)(C)CO`: the boiling point came to 160 °C and the melting point turned out to be 19 °C.
For the molecule `CC(Cl)C(C)(C)O` (stereo not drawn), the boiling point came to 142 °C.
Same read-out and setting: with `C=COCCOCCO` the figure was 196 °C.
In turn, `NC(=O)Nc1ccccc1F` registered a log10 Koc (L/kg) of 1.32.
In turn, `CCOC(=O)C#CC(=O)OCC` registered a melting point of 1.5 °C.
The molecule `CC(C)N(C)C` gave a boiling point of 66 °C.
Molecule `CNCCc1c[nH]c2ccccc12` had a melting point of 88 °C.
Molecule `CCCCN(CCN(CCCC)C(=O)N1CCOCC1)C(=O)N1CCOCC1` displayed a melting point of 41.5 °C.
Regarding `c1ccc(C(c2ccccc2)c2ccccc2)cc1`, the boiling point was 359 °C, the log10 vapour pressure (mmHg) was -5.25 and the melting point came to 94 °C.
For `CCC1(C)OCCO1`, the boiling point is 116 °C.
The molecule `CC(=O)Nc1ncc([N+](=O)[O-])s1` yielded a melting point of 264 °C.
The molecule `C[C@@H]1O[C@@H](O[C@H]2CC[C@]3(C=O)[C@H]4CC[C@]5(C)[C@@H](c6ccc(=O)oc6)CC[C@]5(O)[C@@H]4CC[C@]3(O)C2)[C@H](O)[C@H](O)[C@H]1O[C@@H]1O[C@H](CO)[C@@H](O)[C@H](O)[C@H]1O` displayed a melting point of 284 °C.
`CCCCCC(C)CCC` (stereo not drawn): the boiling point was determined as 166 °C and the melting point was -99 °C.
`Cc1ccccc1N1C(=O)c2cc(S(N)(=O)=O)c(Cl)cc2NC1C` (stereo not drawn) gave a melting point of 256 °C.
In turn, `CCCC(C)(O)C(C)(C)C` (stereo not drawn) had a boiling point of 170 °C.
`O=[N+]([O-])c1ccc(CCl)cc1`: the melting point was found to be 71 °C and the ready biodegradability result is reported as “not readily biodegradable”.
Molecule `CCCCCCCCCCCCCCCC(=O)[O-].[Na+]` registered a melting point of 286 °C.
In the case of `CC(C)c1ccc(O)c(O)c1`, the boiling point came to 271 °C and the melting point was determined as 78 °C.
For the molecule `Oc1ccccc1Cc1ccccc1`, the boiling point was 312 °C and the melting point came to 21 °C.
As for `S=c1sc2nc3ccccc3nc2s1`, the melting point is 180 °C.
The molecule `C[C@@H](O)C(=O)c1ccccc1` returned a boiling point of 251 °C.
Turning to `NC(=O)CBr`, the melting point was 89 °C.
Regarding `CCCC(CC)C(C)CC` (stereo not drawn), the boiling point was 165 °C.
For `CC(=O)OCC(=O)[C@H]1CC[C@H]2[C@@H]3CC[C@H]4C[C@H](O)CC[C@]4(C)[C@H]3C(=O)C[C@]12C`, the melting point is 176 °C.
With `Clc1cc(Cl)cc(-c2ccccc2Cl)c1`, the log10 Henry constant (atm·m³/mol) is -3.7.
As for `COCC(C)Cl` (stereo not drawn), the boiling point is 99 °C.
Consider `CCOP(=S)(OCC)SCCSCC`, for which the log10 Koc (L/kg) is 3.22, the log10 vapour pressure (mmHg) is -4.01 and the melting point is -25 °C.
Consider `CC1OC(OCC2OC(Oc3c(-c4ccc(O)cc4)oc4cc(OC5OC(C)C(O)C(O)C5O)cc(O)c4c3=O)C(O)C(O)C2O)C(O)C(O)C1O` (stereo not drawn), for which the melting point is 250 °C.
As for `CCC(CC)CCl`, the boiling point was found to be 126 °C.
For the molecule `OCc1ccc(F)cc1`, the boiling point worked out at 210 °C and the melting point turned out to be 23 °C.
For the molecule `Fc1ccc(-c2ccc(F)cc2)cc1`, the boiling point came out at 254 °C and the melting point turned out to be 94.5 °C.
For `Cc1ccc(Cl)c(Cl)c1`, the boiling point was found to be 209 °C, the log10 vapour pressure (mmHg) is -0.502 and the melting point was -15.2 °C.
With `CCCOc1ccc(O)cc1`, the melting point worked out at 56.5 °C.
As for `CCSC(=O)SCC`, the boiling point was 197 °C.
The molecule `Cc1cc[nH]c1` registered a boiling point of 143 °C and a melting point of -48.4 °C.
Molecule `C[C@@H]1CCC[C@H]1O` registered a boiling point of 150 °C.
`CCCCNC(=O)COC(=O)c1ccccc1` had a melting point of 69.5 °C.
As to `Cc1cc(O)ccc1Cl`, the boiling point was 235 °C, the log10 vapour pressure (mmHg) is -1.3, the melting point worked out at 67 °C and the ready biodegradability result is “readily biodegradable”.
In the case of `BrCCCCCCCCCCCCCCBr`, the melting point worked out at 50.4 °C.
The same measure, in the same setting: under `CCCCC1C(=O)N(c2ccccc2)N(c2ccc(O)cc2)C1=O` (stereo not drawn) stands 96 °C.
`CCOC(OCC)c1ccco1` displayed a boiling point of 192 °C.
Take `C=CCn1c(=O)n(CC=C)c(=O)n(CC=C)c1=O`: the melting point amounted to 20.5 °C and the ready biodegradability entry was “not readily biodegradable”.
On to `CC(=O)N(C)C`, for which the ready biodegradability entry is recorded as “readily biodegradable”.
`COC(=O)c1ccc(O)cc1O` came in with a melting point of 120 °C.
In turn, `FC(F)COC(F)F` came in with a boiling point of 55.3 °C and a log10 vapour pressure (mmHg) of 2.36.
In turn, `C[Si]1(C)O[Si](C)(C)O[Si](C)(C)O[Si](C)(C)O[Si](C)(C)O1` yielded a boiling point of 210 °C, a log10 Henry constant (atm·m³/mol) of 1.52, a log10 vapour pressure (mmHg) of -0.699 and a melting point of -38 °C.
Molecule `COC(=O)Nc1cccc(Cl)c1` returned a log10 Koc (L/kg) of 2.15.
`COC(=O)c1cccc(Br)c1` gave a melting point of 32 °C.
Molecule `CC1SC(C)SC(C)S1` (stereo not drawn) gave a boiling point of 246 °C and a melting point of 101 °C.
The molecule `CC(=O)Nc1ccc(F)cc1` showed a log10 Koc (L/kg) of 1.48 and a melting point of 154 °C.
In the case of `CCc1ccc(C(C)=O)cc1`, the log10 vapour pressure (mmHg) was -0.0389 and the melting point is -20.6 °C.
Take `CCc1ccc(-c2ccccc2)cc1`: the ready biodegradability entry was “not readily biodegradable”.
For the molecule `Cc1cnc(C(=O)O)c[n+]1[O-]`, the melting point stood at 178 °C.
`C[C@@](Cc1ccc(O)c(O)c1)(NN)C(=O)O` showed a melting point of 208 °C.
In the case of `Cc1cccc(C(=O)N(NC(=O)c2ccccc2)C(C)(C)C)c1`, the melting point was 211 °C.
For `CCc1cc(C)cc(C)c1`, the boiling point was found to be 184 °C, the log10 biodegradation half-life (days) was determined as 0.301, the log10 vapour pressure (mmHg) was 0.0133 and the melting point is -84.3 °C.
`Clc1ccc(-c2ccccc2)c(Cl)c1` registered a log10 Henry constant (atm·m³/mol) of -3.55 and a log10 vapour pressure (mmHg) of -2.86.
`Nc1ccc2cc3ccccc3cc2c1` showed a log10 Koc (L/kg) of 4.45 and a melting point of 239 °C.
`Cc1ccccc1NCc1ccccc1` gave a boiling point of 302 °C and a melting point of 60 °C.
`COC(=O)C1=C(C)NC(C)=C(C(=O)OC)C1c1ccccc1[N+](=O)[O-]` registered a melting point of 173 °C.
In the case of `c1ccc(CCc2ccccn2)cc1`, the boiling point amounted to 289 °C and the melting point was -3 °C.
`CC(Oc1ccc(Oc2ccc(Cl)cc2Cl)cc1)C(=O)O` (stereo not drawn): the melting point is 120 °C.
Still for that read-out and setting: with `CC(C)=CCC1C(=O)N(c2ccccc2)N(c2ccccc2)C1=O` the figure was 156 °C; with `O=C(O)c1ccc2c(c1)OCO2`, 229 °C.
Molecule `C#CCCCCCC#C` showed a boiling point of 162 °C and a melting point of -27.3 °C.
For `O=C1CC(C(=O)O)CC(=O)C1=C(O)C1CC1` (stereo not drawn), the log10 vapour pressure (mmHg) is -7.76 and the melting point came out at 144 °C.
`O=c1c(I)cn(CC(O)CO)cc1I` (stereo not drawn) had a melting point of 161 °C.

The data set is the same for the next values; noted with them: fish.
`Clc1ccccc1-c1c(Cl)ccc(Cl)c1Cl`: the log10 biotransformation half-life (days) was 2.38.
`CCOP(=S)(OCC)SCCSCC` returned a log10 BCF of 2.34 and a log10 biotransformation half-life (days) of 0.03.
`Cc1cc(O)ccc1Cl` showed a log10 BCF of 0.93 and a log10 biotransformation half-life (days) of -1.28.
The molecule `C[Si]1(C)O[Si](C)(C)O[Si](C)(C)O[Si](C)(C)O[Si](C)(C)O1` came in with a log10 biotransformation half-life (days) of 2.74.
`CCc1ccc(-c2ccccc2)cc1` returned a log10 BCF of 2.82 and a log10 biotransformation half-life (days) of 0.06.

Values taken from the OPERA property sets (Mansouri et al. 2018).
